The values that follow are results of earlier work, collected in US20050042712A1, “Methods, compositions and instruments to predict antimicrobial or preservative activity” (ADVANCED MEDICAL OPTICS, INC., priority 2003, published 2005).

The pKa is the negative logarithm of the acid dissociation constant.

Where two headings read alike, the source gives them in different places.

For the compound `O=C1OC2(c3ccccc31)c1cc(Br)c(O)c(Br)c1Oc1c2cc(Br)c(O)c1Br.[Na].[Na]` [Eosin Y, 2′,4′,5′,7′-Tetrabromo-3′,6′-dihydroxyspiro(isobenzofuran-1(3H),9′-(9H)xanthen)-3-one disodium salt], the pKa by setting is: (carboxyphenyl group) 2.7; (phenolate anion) 3.6. Moreover, the solubility in water entry (water) is “freely soluble in water”.
